Data from ChEMBL document CHEMBL4800721, “Data for DCP probe A-446” (2021).
“And” between values parts separate entries of the source, which are not always exact repeats. Equal entries are not always repeated. The source made the active and inactive calls. No cut-off for these calls is given here.

How the values were obtained:
[1] = target: Glutaminase liver isoform, mitochondrial (Homo sapiens, UniProt Q9UI32); assay: GLS2 Enzyme activity assay
[2] = target: Glutaminase kidney isoform, mitochondrial (Homo sapiens, UniProt O94925); assay: GLS Enzyme activity assay
[3] = target: D(3) dopamine receptor (Homo sapiens) (UniProt P35462); conditions: Compound concentration 10.0 uM
[4] = target: 5-hydroxytryptamine receptor 1A (Homo sapiens) (UniProt P08908); conditions: Compound concentration 10.0 uM
[5] = target: Sigma intracellular receptor 2 (Homo sapiens) (UniProt Q5BJF2); conditions: Compound concentration 10.0 uM
[6] = target: D(4) dopamine receptor (Homo sapiens) (UniProt P21917); conditions: Compound concentration 10.0 uM
[7] = target: Muscarinic acetylcholine receptor M4 (Homo sapiens) (UniProt P08173); conditions: Compound concentration 10.0 uM
[8] = target: Muscarinic acetylcholine receptor M3 (Homo sapiens) (UniProt P20309); conditions: Compound concentration 10.0 uM
[9] = target: 5-hydroxytryptamine receptor 5A (Homo sapiens) (UniProt P47898); conditions: Compound concentration 10.0 uM
[10] = target: Histamine H1 receptor (Homo sapiens) (UniProt P35367); conditions: Compound concentration 10.0 uM
[11] = target: T1, 5-hydroxytryptamine receptor 1D (Homo sapiens, UniProt P28221); conditions: Compound concentration 10.0 uM
[12] = target: 5-hydroxytryptamine receptor 2B (Homo sapiens) (UniProt P41595); conditions: Compound concentration 10.0 uM
[13] = target: Mu-type opioid receptor (Homo sapiens) (UniProt P35372); conditions: Compound concentration 10.0 uM
[14] = target: 5-hydroxytryptamine receptor 1B (Homo sapiens) (UniProt P28222); conditions: Compound concentration 10.0 uM
[15] = GPCRScan assay: inhibition of GABA/PBR; parameters: species or system Rattus norvegicus; radioligand conc. used [nm] 0.3 – 2.0, parental cells brain tissue
[16] = target: Delta-type opioid receptor (Homo sapiens) (UniProt P41143); conditions: Compound concentration 10.0 uM
[17] = target: 5-hydroxytryptamine receptor 2A (Homo sapiens) (UniProt P28223); conditions: Compound concentration 10.0 uM
[18] = target: Beta-1 adrenergic receptor (Homo sapiens) (UniProt P08588); conditions: Compound concentration 10.0 uM
[19] = target: 5-hydroxytryptamine receptor 7 (Homo sapiens, UniProt P34969); assay: GPCRScan assay: inhibition of 5-HT7A; parameters: radioligand conc. used [nm] 5.0 – 6.0, parental cells Stable HEK
[20] = target: Histamine H2 receptor (Homo sapiens) (UniProt P25021); conditions: Compound concentration 10.0 uM
[21] = target: Muscarinic acetylcholine receptor M1 (Homo sapiens) (UniProt P11229); conditions: Compound concentration 10.0 uM
[22] = target: Alpha-2A adrenergic receptor (Homo sapiens) (UniProt P08913); conditions: Compound concentration 10.0 uM
[23] = target: Sodium-dependent dopamine transporter (Homo sapiens) (UniProt Q01959); conditions: Compound concentration 10.0 uM
[24] = target: Muscarinic acetylcholine receptor M5 (Homo sapiens) (UniProt P08912); conditions: Compound concentration 10.0 uM
[25] = target: Histamine H4 receptor (Homo sapiens) (UniProt Q9H3N8); conditions: Compound concentration 10.0 uM
[26] = target: 5-hydroxytryptamine receptor 6 (Homo sapiens) (UniProt P50406); conditions: Compound concentration 10.0 uM
[27] = target: Kappa-type opioid receptor (Homo sapiens) (UniProt P41145); conditions: Compound concentration 10.0 uM
A549 = assay: A549 CTG Assay; assay type: cell-based; conditions: Homo sapiens
[28] = target: Sigma non-opioid intracellular receptor 1 (Homo sapiens) (UniProt Q99720); conditions: Compound concentration 10.0 uM
[29] = target: T1, 5-hydroxytryptamine receptor 1D; assay: GPCRScan assay: inhibition of 5-HT1D; parameters: radioligand conc. used [nm] 1.0 – 2.0, parental cells HEKT
[30] = target: Alpha-2C adrenergic receptor (Homo sapiens) (UniProt P18825); conditions: Compound concentration 10.0 uM
[31] = target: Alpha-2B adrenergic receptor (Homo sapiens) (UniProt P18089); conditions: Compound concentration 10.0 uM
[32] = target: Beta-2 adrenergic receptor (Homo sapiens) (UniProt P07550); conditions: Compound concentration 10.0 uM
[33] = target: 5-hydroxytryptamine receptor 1E (Homo sapiens) (UniProt P28566); conditions: Compound concentration 10.0 uM
[34] = target: 5-hydroxytryptamine receptor 3A (Homo sapiens) (UniProt P46098); conditions: Compound concentration 10.0 uM

T1 sequence (P28221 whole entry): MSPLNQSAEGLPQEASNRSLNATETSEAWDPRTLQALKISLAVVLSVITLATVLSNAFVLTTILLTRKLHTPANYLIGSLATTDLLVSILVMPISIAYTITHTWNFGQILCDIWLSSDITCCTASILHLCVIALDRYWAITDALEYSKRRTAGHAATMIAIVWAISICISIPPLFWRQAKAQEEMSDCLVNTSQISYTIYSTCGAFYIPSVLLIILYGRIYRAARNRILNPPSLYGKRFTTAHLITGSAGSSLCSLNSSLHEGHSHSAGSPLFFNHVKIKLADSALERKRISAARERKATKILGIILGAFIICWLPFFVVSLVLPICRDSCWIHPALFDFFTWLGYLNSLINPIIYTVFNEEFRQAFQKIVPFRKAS
Sequence of Glutaminase kidney isoform, mitochondrial (O94925 whole entry, canonical isoform): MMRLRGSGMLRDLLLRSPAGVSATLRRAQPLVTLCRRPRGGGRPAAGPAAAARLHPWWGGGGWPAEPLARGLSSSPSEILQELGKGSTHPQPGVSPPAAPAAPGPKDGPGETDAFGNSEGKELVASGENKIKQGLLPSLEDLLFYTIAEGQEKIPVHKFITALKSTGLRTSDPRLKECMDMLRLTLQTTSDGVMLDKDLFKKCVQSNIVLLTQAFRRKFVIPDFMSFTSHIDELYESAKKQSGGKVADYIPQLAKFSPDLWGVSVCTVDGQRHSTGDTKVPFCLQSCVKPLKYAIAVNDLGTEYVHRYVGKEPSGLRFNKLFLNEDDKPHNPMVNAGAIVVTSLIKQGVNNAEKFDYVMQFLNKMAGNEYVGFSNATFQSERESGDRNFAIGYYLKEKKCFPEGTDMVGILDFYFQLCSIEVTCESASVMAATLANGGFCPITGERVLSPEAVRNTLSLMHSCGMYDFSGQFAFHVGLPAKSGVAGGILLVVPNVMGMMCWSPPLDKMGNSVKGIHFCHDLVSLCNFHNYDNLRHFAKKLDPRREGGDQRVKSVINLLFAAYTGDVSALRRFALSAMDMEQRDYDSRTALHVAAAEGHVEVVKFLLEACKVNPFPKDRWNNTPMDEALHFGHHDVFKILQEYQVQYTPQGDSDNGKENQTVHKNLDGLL
Sequence of Glutaminase liver isoform, mitochondrial (Q9UI32 whole entry, canonical isoform): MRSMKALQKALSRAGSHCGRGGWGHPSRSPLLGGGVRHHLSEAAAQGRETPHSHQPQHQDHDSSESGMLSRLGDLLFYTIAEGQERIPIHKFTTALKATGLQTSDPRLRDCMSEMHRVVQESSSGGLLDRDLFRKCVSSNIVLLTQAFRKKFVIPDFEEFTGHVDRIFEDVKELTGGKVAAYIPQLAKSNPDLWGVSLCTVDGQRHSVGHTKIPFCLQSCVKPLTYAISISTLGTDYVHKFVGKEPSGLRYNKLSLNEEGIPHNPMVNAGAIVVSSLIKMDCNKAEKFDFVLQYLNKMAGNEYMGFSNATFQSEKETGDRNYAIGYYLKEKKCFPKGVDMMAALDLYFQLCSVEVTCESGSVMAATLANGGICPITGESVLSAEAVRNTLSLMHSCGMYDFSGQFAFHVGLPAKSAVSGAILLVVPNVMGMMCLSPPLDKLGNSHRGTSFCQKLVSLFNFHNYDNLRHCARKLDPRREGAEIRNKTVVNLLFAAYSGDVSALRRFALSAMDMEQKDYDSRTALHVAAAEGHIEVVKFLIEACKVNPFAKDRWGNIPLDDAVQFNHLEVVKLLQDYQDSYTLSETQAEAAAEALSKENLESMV
Sequence of 5-hydroxytryptamine receptor 7 (P34969 whole entry): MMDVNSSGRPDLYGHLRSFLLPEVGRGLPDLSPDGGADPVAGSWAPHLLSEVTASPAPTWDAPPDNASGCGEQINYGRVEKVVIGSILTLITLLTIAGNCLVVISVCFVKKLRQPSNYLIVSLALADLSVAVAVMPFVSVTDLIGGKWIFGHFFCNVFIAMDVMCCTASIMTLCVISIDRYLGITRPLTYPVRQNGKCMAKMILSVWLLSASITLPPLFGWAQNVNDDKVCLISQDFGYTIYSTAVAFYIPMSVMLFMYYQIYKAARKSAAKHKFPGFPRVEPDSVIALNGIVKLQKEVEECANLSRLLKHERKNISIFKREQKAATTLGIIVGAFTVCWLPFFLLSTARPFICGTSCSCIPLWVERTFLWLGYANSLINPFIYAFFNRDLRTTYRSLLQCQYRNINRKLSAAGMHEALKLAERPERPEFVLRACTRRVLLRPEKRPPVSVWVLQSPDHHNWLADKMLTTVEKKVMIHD
Sequence of 5-hydroxytryptamine receptor 2B (Homo sapiens) (P41595 whole entry): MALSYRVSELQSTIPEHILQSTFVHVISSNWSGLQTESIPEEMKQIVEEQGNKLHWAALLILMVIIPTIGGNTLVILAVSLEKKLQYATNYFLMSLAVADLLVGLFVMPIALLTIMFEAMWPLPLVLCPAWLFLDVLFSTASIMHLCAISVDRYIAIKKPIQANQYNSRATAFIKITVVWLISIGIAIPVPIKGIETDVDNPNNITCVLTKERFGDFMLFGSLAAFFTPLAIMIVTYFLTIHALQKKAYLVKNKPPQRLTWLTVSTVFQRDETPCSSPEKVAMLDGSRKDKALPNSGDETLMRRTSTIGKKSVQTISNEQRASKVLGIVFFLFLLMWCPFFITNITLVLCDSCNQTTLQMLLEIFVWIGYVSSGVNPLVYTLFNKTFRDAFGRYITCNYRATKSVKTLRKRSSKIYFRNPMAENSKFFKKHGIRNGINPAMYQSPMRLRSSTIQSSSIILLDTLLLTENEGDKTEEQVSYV
Sequence of D(3) dopamine receptor (Homo sapiens) (P35462 whole entry): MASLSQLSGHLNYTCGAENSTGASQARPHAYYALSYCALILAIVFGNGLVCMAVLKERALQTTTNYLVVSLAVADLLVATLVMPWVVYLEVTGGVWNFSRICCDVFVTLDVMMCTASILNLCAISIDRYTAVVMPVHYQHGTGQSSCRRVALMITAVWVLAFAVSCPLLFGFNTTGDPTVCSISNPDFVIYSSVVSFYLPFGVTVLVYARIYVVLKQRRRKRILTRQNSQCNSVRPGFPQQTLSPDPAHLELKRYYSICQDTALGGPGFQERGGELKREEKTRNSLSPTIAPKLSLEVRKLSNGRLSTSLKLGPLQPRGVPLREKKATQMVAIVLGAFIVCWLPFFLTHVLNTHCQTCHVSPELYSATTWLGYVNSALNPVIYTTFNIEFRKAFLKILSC
Sequence of Muscarinic acetylcholine receptor M1 (Homo sapiens) (P11229 whole entry): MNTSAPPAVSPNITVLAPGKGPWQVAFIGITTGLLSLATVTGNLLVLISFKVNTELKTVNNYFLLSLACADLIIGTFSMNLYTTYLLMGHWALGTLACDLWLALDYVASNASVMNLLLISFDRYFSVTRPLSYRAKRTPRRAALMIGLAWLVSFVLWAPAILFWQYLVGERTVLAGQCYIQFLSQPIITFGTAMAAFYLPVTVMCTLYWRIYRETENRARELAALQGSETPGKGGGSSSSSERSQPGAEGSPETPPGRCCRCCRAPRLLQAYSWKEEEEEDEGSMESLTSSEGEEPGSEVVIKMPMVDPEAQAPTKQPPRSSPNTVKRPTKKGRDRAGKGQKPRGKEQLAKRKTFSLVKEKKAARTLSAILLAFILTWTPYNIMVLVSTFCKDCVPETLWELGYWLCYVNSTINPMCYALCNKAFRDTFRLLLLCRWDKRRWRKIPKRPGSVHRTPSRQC
Sequence of Delta-type opioid receptor (Homo sapiens) (P41143 whole entry): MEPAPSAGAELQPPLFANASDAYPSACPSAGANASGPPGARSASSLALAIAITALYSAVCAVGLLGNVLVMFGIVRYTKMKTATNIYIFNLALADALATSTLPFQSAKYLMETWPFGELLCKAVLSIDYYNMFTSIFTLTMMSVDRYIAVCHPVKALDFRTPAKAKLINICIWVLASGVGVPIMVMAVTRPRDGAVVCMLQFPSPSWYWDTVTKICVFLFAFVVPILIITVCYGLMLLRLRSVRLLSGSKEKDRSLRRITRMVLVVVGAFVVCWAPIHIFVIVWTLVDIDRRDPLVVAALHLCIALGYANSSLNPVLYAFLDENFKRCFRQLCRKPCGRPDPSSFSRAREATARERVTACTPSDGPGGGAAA
Sequence of Muscarinic acetylcholine receptor M3 (Homo sapiens) (P20309 whole entry, looked up): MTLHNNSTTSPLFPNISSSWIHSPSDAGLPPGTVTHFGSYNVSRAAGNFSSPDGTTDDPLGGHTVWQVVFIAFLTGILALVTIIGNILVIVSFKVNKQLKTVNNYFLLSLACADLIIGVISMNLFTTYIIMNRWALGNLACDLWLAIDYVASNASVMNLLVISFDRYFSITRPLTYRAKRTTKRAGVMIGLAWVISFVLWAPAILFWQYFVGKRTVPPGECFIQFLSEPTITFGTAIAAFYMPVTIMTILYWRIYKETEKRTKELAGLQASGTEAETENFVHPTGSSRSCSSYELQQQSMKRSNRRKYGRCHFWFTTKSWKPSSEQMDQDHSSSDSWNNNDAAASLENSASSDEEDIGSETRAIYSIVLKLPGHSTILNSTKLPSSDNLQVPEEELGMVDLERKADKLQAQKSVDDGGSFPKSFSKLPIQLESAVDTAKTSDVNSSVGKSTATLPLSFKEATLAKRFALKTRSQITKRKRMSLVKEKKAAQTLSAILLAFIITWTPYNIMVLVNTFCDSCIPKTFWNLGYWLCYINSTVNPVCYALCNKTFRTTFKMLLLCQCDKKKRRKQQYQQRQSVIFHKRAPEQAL
Sequence of Sigma intracellular receptor 2 (Homo sapiens) (Q5BJF2 whole entry): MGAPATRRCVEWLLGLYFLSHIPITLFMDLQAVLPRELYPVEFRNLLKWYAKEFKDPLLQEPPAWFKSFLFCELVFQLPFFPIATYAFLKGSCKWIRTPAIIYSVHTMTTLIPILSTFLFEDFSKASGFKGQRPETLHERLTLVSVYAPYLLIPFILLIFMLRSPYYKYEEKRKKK
Sequence of 5-hydroxytryptamine receptor 5A (Homo sapiens) (P47898 whole entry): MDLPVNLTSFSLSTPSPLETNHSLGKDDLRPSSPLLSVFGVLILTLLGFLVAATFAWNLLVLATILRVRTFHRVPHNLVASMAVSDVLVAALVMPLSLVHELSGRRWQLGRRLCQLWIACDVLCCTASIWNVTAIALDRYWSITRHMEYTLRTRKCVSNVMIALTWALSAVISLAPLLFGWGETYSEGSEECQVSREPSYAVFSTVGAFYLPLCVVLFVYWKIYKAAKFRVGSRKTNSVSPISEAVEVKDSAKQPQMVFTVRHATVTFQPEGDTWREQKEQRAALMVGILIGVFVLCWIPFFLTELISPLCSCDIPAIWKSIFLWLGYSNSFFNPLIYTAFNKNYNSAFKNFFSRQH

O=C(Cc1ccccc1)Nc1nnc(N2CC[C@@H]3[C@H]2CN3c2cccnn2)s1 [A-426]
IC50 [1]: > 30 µM (not active)
IC50 [2]: > 30 µM (not active)

O=C(Cc1ccccc1)Nc1nnc(N2C[C@H]3C[C@@H]2CN3c2cccnn2)s1 [A-446]
inhibition [3]: -3.72%
inhibition [4]: 1.9%
inhibition [5]: 6.42%
inhibition [6]: -7.36%
inhibition [7]: -9.24%
inhibition [8]: 9.66%
inhibition [9]: 4.08%
inhibition [10]: 21.3%
inhibition [11]: 55.1%
inhibition [12]: 1.83%
inhibition [13]: -3.29%
inhibition [14]: 11.2%
Ki [15]: > 10 µM
pKi [15]: < 5
inhibition [16]: -2.96%
inhibition [17]: -2.63%
inhibition [18]: 1.03%
Ki [19]: > 10 µM
pKi [19]: < 5
inhibition [20]: -5.22%
inhibition [21]: 14.6%
inhibition [22]: 12.2%
IC50 [1]: > 30 µM (not active)
inhibition [23]: 33.5%
inhibition [24]: 15%
inhibition [25]: 18.3%
inhibition [26]: -4.23%
inhibition [27]: 2.85%
IC50 (A549): 0.0105 µM (active)
inhibition [28]: 9.03%
Ki ([29]; read-out: Ki): > 10 µM and 6.45 µM
Ki ([29]; read-out: pKi (converted)): > 10 µM
inhibition [30]: 13.9%
inhibition [31]: -6.1%
inhibition [32]: -8.05%
inhibition [33]: -1.42%
IC50 [2]: 0.031 µM (active)
inhibition [34]: 1.72%
